For test [1], the target named is T1, KRAS WT (Homo sapiens, UniProt P01116).
T1 construct: made in house; host or cells: E. coli BL21 (DE3)
Nature of the test: HTRF assay, interaction of GST-tagged K-Ras with His-tagged hSOS1 (KRAS wildtype). The format is biochemical. As to conditions: <500 nM, read-out: Inhibition of KRAS WT (IC50). The source says: (§1) This assay can be also used to assess a selective inhibition or reduction of signaling output of a mutant Ras protein relative to a wildtype, or relative to a different mutant Ras protein. For example, the equilibrium interaction of wildtype KRAS or K-Ras mutant (e.g., wildtype or a mutant thereof) with SOS1 (e.g., hSOS1) can be assessed as a proxy or an indication for the ability of a subject compound to bind and inhibit Ras protein. The HTRF assay detects from (i) a fluorescence resonance energy transfer (FRET) donor (e.g., antiGST-Europium) that is bound to GST-tagged K-Ras mutant to (ii) a FRET acceptor (e.g., anti-6His-XL665) bound to a His-tagged hSOS1.
(§2) The assay buffer can contain ˜5 mM HEPES pH 7.4, ˜150 mM NaCl, ˜1 mM DTT, 0.05% BSA and 0.0025% (v/v) Igepal. A Ras working solution is prepared in an assay buffer containing typically a suitable amount of the protein construct (e.g., GST-tagged K-Ras mutant) and the FRET donor (e.g., antiGST-Eu(K) from Cisbio, France). A SOS1 working solution is prepared in an assay buffer containing suitable amount of the protein construct (e.g., His-hSOS1) and the FRET acceptor (e.g., anti-6His-XL665 from Cisbio, France). A suitable amount of the protein construct will depend on the range of activity or range of IC50 values being detected or under investigation. For detecting an IC50 within a range of 500 nM, the protein constructs of the same range of molarity can be utilized.
(§3) A fixed volume of DMSO with or without test compound is transferred into a 384-well plate. Ras working solution is added to all wells of the test plate. SOS1 working solution is added to all wells except for those that are subsequently filled with inhibitor control solution. Upon incubation for about 10 minutes or longer, the fluorescence is measured with a M1000Pro plate reader (Tecan) using HTRF detection (excitation 337 nm, emission 1: 620 nm, emission 2: 665 nm). Compounds are tested in duplicate at different concentrations (for example, 10 μM, 2.5 μM, 0.63 μM, 0.16 μM, 0.04 μM, 0.01 μM test compound). The ratiometric data (i.e., emission 2 divided by emission 1) is used to calculate IC50 values against Ras using GraphPad Prism (GraphPad software). Signaling output measured in terms of IC50 values can be obtained and a ratio of IC50 against one mutant relative to another mutant can be calculated. For instance, a selective reduction of K-Ras G12S signaling output can be evidenced by a ratio greater than one. In particular, a selective reduction of K-Ras G12S signaling relative to K-Ras WT signaling is evidenced if the ratio of IC50 (against K-Ras WT) to IC50 (against K-Ras G12S) is greater than 1.
On the technique in general: Time-resolved FRET reads energy transfer from a long-lived donor to a nearby acceptor.

In test [2] the target is T2, KRAS G12S (Homo sapiens, UniProt P01116, G12S).
T2 construct: made in house; host or cells: E. coli BL21 (DE3)
T2 sequence (P01116 1-188 isoform P01116-2 G12S): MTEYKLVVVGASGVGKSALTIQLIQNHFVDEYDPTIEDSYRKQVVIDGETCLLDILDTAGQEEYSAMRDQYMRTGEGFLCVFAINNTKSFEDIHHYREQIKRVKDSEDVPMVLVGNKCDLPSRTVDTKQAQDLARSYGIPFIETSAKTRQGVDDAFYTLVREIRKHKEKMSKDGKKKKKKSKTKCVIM
Nature of the test: HTRF assay, interaction of GST-tagged K-Ras with His-tagged hSOS1 (KRAS G12S). The format is biochemical. The following applies: <500 nM, read-out: Inhibition of KRAS G12S (IC50).
Source text: as §1, §2, §3

Data on 15 compounds can be found in patent US12606572B2, “Substituted heterocycles and uses thereof” (Kumquat Biosciences Inc., priority 2023, dated 2026).

Each structure is given as a SMILES string. Some results are limits rather than exact numbers.

T1 sequence (P01116 1-188 isoform P01116-2): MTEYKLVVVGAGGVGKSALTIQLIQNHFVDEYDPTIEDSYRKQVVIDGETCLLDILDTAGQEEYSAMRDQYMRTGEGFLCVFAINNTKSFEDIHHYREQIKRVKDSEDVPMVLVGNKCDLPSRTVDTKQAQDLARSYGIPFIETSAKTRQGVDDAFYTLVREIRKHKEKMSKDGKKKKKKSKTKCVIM

Regarding `C[C@@H]1[C@H](N2C[C@H](C)Oc3c(Cl)c(-c4ccc(F)c5sc(N)c(C#N)c45)c(F)c4nc(OC[C@@]56CCCN5C[C@H](F)C6)nc2c34)CCN1C(=O)n1cnc(Cl)n1` (atropisomer, axis not shown; (aS)) [Compound 407, 2-amino-4-((6S,9R)-8-chloro-4-((2R,3R)-1-(3-chloro-1H-1,2,4-triazole-1-carbonyl)-2-methylpyrrolidin-3-yl)-10-fluoro-2-(((2R,7aS)-2-fluorotetrahydro-1H-pyrrolizin-7a (5H)-yl)methoxy)-6-methyl-5,6-dihydro-4H-[1,4]oxazepino[5,6,7-de]quinazolin-9-yl)-7-fluorobenzo[b]thiophene-3-carbonitrile], the IC50 in test [1] and in test [2] was < 0.5 µM throughout.
In the case of `C[C@H](O)[C@H]1COc2c(Cl)c(-c3ccc(F)c4sc(N)c(C#N)c34)c(F)c3nc(OC[C@@]45CCCN4C[C@H](F)C5)nc(c23)N1C[C@H]1CN(C(=O)n2ccnc2)[C@@H]1C` (single isomer, unassigned) [Compound 402], the IC50 in test [1] and in test [2] was < 0.5 µM throughout.
Regarding `CC(C)[C@@H]1[C@H](CN2CCOc3c(Cl)c(-c4ccc(F)c5sc(N)c(C#N)c45)c(F)c4nc(OC[C@@]56CCCN5C[C@H](F)C6)nc2c34)CN1C(=O)n1cnc(F)n1` (single isomer, unassigned) [Compound 408], the IC50 in test [1] and in test [2] was < 0.5 µM each time.
For `CC(C)[C@@H]1[C@@H](CN2c3nc(OC[C@@]45CCCN4C[C@H](F)C5)nc4c(F)c(-c5ccc(F)c6sc(N)c(C#N)c56)c(Cl)c(c34)OC[C@@H]2[C@H](C)O)CN1C(=O)n1ccnc1` (single isomer, unassigned) [Compound 410], the IC50 in test [1] and in test [2] was < 0.5 µM each time.
Take `CC1([C@@H]2[C@H](CN3CCOc4c(Cl)c(-c5ccc(F)c6sc(N)c(C#N)c56)c(F)c5nc(OC[C@@]67CCCN6C[C@H](F)C7)nc3c45)CN2C(=O)n2cnc(F)n2)CC1` (single isomer, unassigned) [Compound 420]: the half-inhibitory concentration (IC50) in test [1] and in test [2] was < 0.5 µM throughout.
`C[C@H]1COc2c(Cl)c(-c3ccc(F)c4sc(N)c(C#N)c34)c(F)c3nc(OC[C@@]45CCCN4C[C@H](F)C5)nc(c23)N1C[C@@H]1CN(C(=O)n2ccnc2)[C@@H]1C1(C)CC1` (single isomer, unassigned) [Compound 421]: in test [2], the concentration for half-maximal inhibition (IC50) was < 0.5 µM.
Turning to `C[C@@H]1[C@H](N2CCOc3c(Cl)c(-c4ccc(F)c5sc(N)c(C#N)c45)c(F)c4nc(OC[C@@]56CCCN5C[C@H](F)C6)nc2c34)CCN1C(=O)n1cnc(F)n1` (single isomer, unassigned) [Compound 426], the IC50 in test [1] and in test [2] was < 0.5 µM each time.
In the case of `C[C@@H]1[C@H](N2c3nc(OC[C@@]45CCCN4C[C@H](F)C5)nc4c(F)c(-c5ccc(F)c6sc(N)c(C#N)c56)c(Cl)c(c34)OC[C@@H]2C)CCN1C(=O)n1ccnc1` (single isomer, unassigned) [Compound 432], the IC50 in test [1] and in test [2] was < 0.5 µM throughout.
Regarding `CC(C)(C)[C@@H]1[C@H](CN2CCOc3c(Cl)c(-c4ccc(F)c5sc(N)c(C#N)c45)c(F)c4nc(OC[C@@]56CCCN5C[C@H](F)C6)nc2c34)CN1C(=O)n1cnc(F)n1` (single isomer, unassigned) [Compound 434], the IC50 in test [1] and in test [2] was < 0.5 µM each time.
With `C[C@H](O)[C@H]1COc2c(Cl)c(-c3ccc(F)c4sc(N)c(C#N)c34)c(F)c3nc(OC[C@@]45CCCN4C[C@H](F)C5)nc(c23)N1C1CC(CN(C)C(=O)n2ccnc2)C1` (stereo partly drawn) [Compound 401, N-((3-((5R)-9-(2-amino-3-cyano-7-fluorobenzo[b]thiophen-4-yl)-8-chloro-10-fluoro-2-(((2R,7aS)-2-fluorotetrahydro-1H-pyrrolizin-7a(5H)-yl)methoxy)-5-((S)-1-hydroxyethyl)-5,6-dihydro-4H-[1,4]oxazepino[5,6,7-de]quinazolin-4-yl)cyclobutyl)methyl)-N-methyl-1H-imidazole-1-carboxamide], in test [2], the IC50 was < 0.5 µM.
For the compound `N#Cc1cn(C(=O)N2CC(CN3CCOc4c(Cl)c(-c5ccc(F)c6sc(N)c(C#N)c56)c(F)c5nc(OC[C@@]67CCCN6C[C@H](F)C7)nc3c45)C2)cn1` [Compound 436, 1-(3-((9-(2-amino-3-cyano-7-fluorobenzo[b]thiophen-4-yl)-8-chloro-10-fluoro-2-(((2R,7aS)-2-fluorotetrahydro-1H-pyrrolizin-7a(5H)-yl)methoxy)-5,6-dihydro-4H-[1,4]oxazepino [5,6,7-de]quinazolin-4-yl)methyl)azetidine-1-carbonyl)-1H-imidazole-4-carbonitrile], in test [2], the IC50 is < 0.5 µM.
On the same count and under the same terms, for `CN1[C@H](C2CC2)[C@@H]1C(=O)N1CC(CN2CCOc3c(Cl)c(-c4ccc(F)c5sc(N)c(C#N)c45)c(F)c4nc(OC[C@@]56CCCN5C[C@H](F)C6)nc2c34)C1` (stereo partly drawn) [Compound 440, 2-amino-4-(8-chloro-4-((1-((2R,3R)-3-cyclopropyl-1-methylaziridine-2-carbonyl)azetidin-3-yl)methyl)-10-fluoro-2-(((2R,7aS)-2-fluorotetrahydro-1H-pyrrolizin-7a (5H)-yl)methoxy)-5,6-dihydro-4H-[1,4]oxazepino[5,6,7-de]quinazolin-9-yl)-7-fluorobenzo[b]thiophene-3-carbonitrile] the value was < 0.5 µM; for `CC(CN(C)C(=O)n1ccnc1)N1c2nc(OC[C@@]34CCCN3C[C@H](F)C4)nc3c(F)c(-c4ccc(F)c5sc(N)c(C#N)c45)c(Cl)c(c23)OC[C@@H]1[C@H](C)O` (stereo partly drawn) [Compound 451, N-(2-((5R)-9-(2-amino-3-cyano-7-fluorobenzo[b]thiophen-4-yl)-8-chloro-10-fluoro-2-(((2R,7aS)-2-fluorotetrahydro-1H-pyrrolizin-7a(5H)-yl)methoxy)-5-((S)-1-hydroxyethyl)-5,6-dihydro-4H-[1,4]oxazepino [5,6,7-de]quinazolin-4-yl)propyl)-N-methyl-1H-imidazole-1-carboxamide], < 0.5 µM.
For the compound `CC1([C@@H]2[C@H](CN3CCOc4c(Cl)c(-c5ccc(F)c6sc(N)c(C#N)c56)c(F)c5nc(OC[C@@]67CCCN6C[C@H](F)C7)nc3c45)CN2C(=O)n2ccnc2)CC1` [Compound 485, 4-(4-(((2S,3R)-1-(1H-imidazole-1-carbonyl)-2-(1-methylcyclopropyl)azetidin-3-yl)methyl)-8-chloro-10-fluoro-2-(((2R,7aS)-2-fluorotetrahydro-1H-pyrrolizin-7a(5H)-yl)methoxy)-5,6-dihydro-4H-[1,4]oxazepino [5,6,7-de]quinazolin-9-yl)-2-amino-7-fluorobenzo[b] thiophene-3-carbonitrile], the IC50 in test [1] is < 0.5 µM.
`CC1([C@@H]2[C@H](CN3CCOc4c(Cl)c(-c5ccc(F)c6sc(N)c(C#N)c56)c(F)c5nc(OC[C@@]67CCCN6C[C@H](F)C7)nc3c45)CN2C(=O)n2ccnc2)CC1` [Compound 486, 4-(4-(((2S,3R)-1-(1H-imidazole-1-carbonyl)-2-(1-methylcyclopropyl)azetidin-3-yl)methyl)-8-chloro-10-fluoro-2-(((2R,7aS)-2-fluorotetrahydro-1H-pyrrolizin-7a(5H)-yl)methoxy)-5,6-dihydro-4H-[1,4]oxazepino [5,6,7-de]quinazolin-9-yl)-2-amino-7-fluorobenzo[b] thiophene-3-carbonitrile]: the IC50 in test [2] is < 0.5 µM.

For orientation: IC50 means the midpoint of a concentration-inhibition curve.
